{"source": "patent US9101547B2", "about": "“Enteric-coated capsule containing cationic nanoparticles for oral insulin delivery” (NANO AND ADVANCED MATERIALS INSTITUTE LIMITED, priority 2011, dated 2015)", "test_system": "diabetic rats", "assay": "In vivo study after administration in diabetic rats (blood glucose level-time profiles)", "method": "The effect of insulin-loaded nanoparticles on the blood glucose levels is shown by comparing with that of the S.C. injection of insulin. […] SC injection of the insulin solution produces a sharp decrease in blood glucose level (90% in 2 h), which gradually returns to the basal level at 10 h, whereas the hypoglycemia effect is less significant after oral administration of the enteric-coated capsules which produces a slower but prolonged reduction in blood glucose level. The blood glucose level of the diabetic rats increases slightly during the first 4 hours of the experiment, possibly due to physical stress during handling and blood sampling. The hypoglycemic effect and the pharmacological availability (PA) of the enteric-coated capsule, determined by the dose-corrected AAC0-24h over 24 h relative to SC free-form insulin, as noted in Table 4, are 32.9% and 9.2%, respectively."}
{"substance": "insulin [Insulin free-form (SC)]", "values": [{"measurement": "hypoglycemic effect (FIG. 4)", "result": "significant hypoglycemic effect"}, {"measurement": "time at which blood glucose returns to the basal level", "setting": "SC injection", "result": 10, "unit": "h"}, {"measurement": "decrease in blood glucose level", "setting": "SC injection, in 2 h", "result": 90, "unit": "%"}, {"measurement": "PA (pharmacological availability)", "setting": "dose-corrected AAC0-24h relative to SC free-form insulin", "result": 100, "unit": "%"}, {"measurement": "Cmin = minimum relative basal glucose concentration in the blood", "setting": "mean ± SD, n = 3 per group", "result": "11.72 ± 1.1", "unit": "%"}, {"measurement": "AAC0-24 h", "setting": "n = 3 per group", "result": 1008, "unit": "% h"}, {"measurement": "Tmax = time at minimum relative basal glucose concentration in the blood", "setting": "n = 3 per group", "result": 2, "unit": "h"}, {"measurement": "Hypoglycemic Effect", "setting": "over 24 h, n = 3 per group", "result": 35.2, "unit": "%"}]}
